In US9610245B2, “Ophthalmic composition” (Drug Delivery Solutions Limited, priority 2011, dated 2017):

Test: Ex vivo permeation of cyclosporine through cornea, Ussing diffusion cells
Type: in vitro ADME, rabbit
Conditions: excipient changed in or added to the Example 1 formulation
Method: In order to determine the permeation of cyclosporine (CsA) formulations into and through the cornea, ex vivo studies were conducted. In brief, the corneas from rabbits were taken and mounted onto Ussing diffusion cells incubated at 37° C. and perfused with carbogen (95/5 oxygen/[…]). Approximately 3 ml sample was placed in the donor side of the chamber, 3 ml Ringers solution (6.5 g NaCl, 0.42 g KCl, 0.25 g CaCl2 and […] of Sodium bicarbonate per litre; isotonic solution pH 7.2) was placed in the receptor side of the chamber.
Permeation across the cornea was determined by collecting 200 μl receptor phase at the appropriate time points. At time zero and at 8 hours (termination of the experiment) 100 μl of sample from the donor phase was taken for analysis. Corneas were collected and split into the stomal and epithelial parts. The cyclosporine in the cornea sections were analysed after extraction into 50/50 methanol/water. Levels of CsA in the receptor chamber, the cornea and in the donor chamber were determined by HPLC analysis. Formulations used were based on Example 1. The table below summarises the changes made to this formulation.

## benzalkonium chloride
  effect of excipient on permeation of CsA into and through the cornea: no significant effect
